Test results taken from patent publication US20260234157A1, “COMPOUND AND METHOD FOR TARGETED DEGRADATION OF ANDROGEN RECEPTOR” (Gan & Lee Pharmaceuticals Co., Ltd., priority 2023, published 2026).
Numbering of substitutions follows the chain as printed. Like-named read-outs stand apart in the source and are kept apart here.

Assays:
Format in all cases: cell-based
[1] = tested on: VCaP cells; assay: Inhibition of proliferation of VCaP cells (WST-8); conditions: Homo sapiens, read-out: IC50 for inhibiting the proliferation of VCaP cells
In short: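 Proliferation was read by WST-8 on day nine. Cells were VCaP FGC, seeded at 15000 cells per well in 10% FBS DMEM and kept at 37° C with 5% CO2.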

[2] = target: T1, AR protein (Homo sapiens, UniProt P10275, T878A); assay: Degradation of AR protein in LNCaP cells (Western blot); conditions: for inhibition at 0.01 µM: read-out: Degradation rates of the AR protein in LNCaP cells, 10 nM (%); for inhibition at 0.1 µM: read-out: Degradation rates of the AR protein in LNCaP cells, 100 nM (%)
T1 construct: degradation activity of the compounds disclosed in the present disclosure on AR protein in LNCaP cells; host or cells: LNCaP FGC
T1 sequence (P10275 1-920 T878A): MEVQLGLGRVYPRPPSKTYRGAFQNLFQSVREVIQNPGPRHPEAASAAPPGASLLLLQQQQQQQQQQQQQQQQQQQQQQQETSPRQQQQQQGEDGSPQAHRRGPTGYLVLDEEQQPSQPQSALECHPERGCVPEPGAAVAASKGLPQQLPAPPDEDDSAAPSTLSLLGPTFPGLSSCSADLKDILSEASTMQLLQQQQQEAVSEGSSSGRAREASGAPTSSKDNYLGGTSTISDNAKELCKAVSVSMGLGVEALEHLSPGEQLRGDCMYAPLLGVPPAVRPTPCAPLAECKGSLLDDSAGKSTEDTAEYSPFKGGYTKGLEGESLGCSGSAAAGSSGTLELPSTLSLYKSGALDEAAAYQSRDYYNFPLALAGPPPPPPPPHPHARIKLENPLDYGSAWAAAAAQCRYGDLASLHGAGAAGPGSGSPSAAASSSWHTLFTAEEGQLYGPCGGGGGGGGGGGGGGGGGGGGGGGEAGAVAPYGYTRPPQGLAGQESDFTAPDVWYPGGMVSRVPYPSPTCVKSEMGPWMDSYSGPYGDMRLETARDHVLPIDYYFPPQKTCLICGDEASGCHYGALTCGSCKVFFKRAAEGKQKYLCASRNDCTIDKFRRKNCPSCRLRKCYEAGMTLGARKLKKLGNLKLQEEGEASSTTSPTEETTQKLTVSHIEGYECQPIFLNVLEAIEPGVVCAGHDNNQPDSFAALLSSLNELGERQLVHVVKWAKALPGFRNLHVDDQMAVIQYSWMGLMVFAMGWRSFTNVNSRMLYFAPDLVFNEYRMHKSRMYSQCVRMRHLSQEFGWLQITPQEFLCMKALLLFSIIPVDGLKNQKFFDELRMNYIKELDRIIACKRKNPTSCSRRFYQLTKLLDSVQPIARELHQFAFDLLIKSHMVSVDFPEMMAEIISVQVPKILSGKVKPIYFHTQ
In short: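 Percent AR degradation was derived from GAPDH-normalised Western blot band intensities (infrared detection) in LNCaP lysates.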

[3] = tested on: LNCaP FGC cells; assay: Inhibition of proliferation of LNCaP cells (WST-8); conditions: Homo sapiens, LNCaP, 96 h
Protocol: The cells were cultured in a cell culture incubator with 5% CO2 at 37° C. overnight. […] On the sixth day, 96 well plates were taken out, and 20 μL of WST-8 (Beytime, C0040) reagent was added to each well.

[4] = target: T2, AR protein (Homo sapiens, UniProt P10275); assay: Degradation of AR protein in VCaP cells (Western blot); conditions: 8 hours; for inhibition at 0.01 µM: compound at 10 nM, read-out: Degradation rate of the AR protein in VCaP cells, 10 nM (%); for inhibition at 0.1 µM: compound at 100 nM, read-out: Degradation rate of the AR protein in VCaP cells, 100 nM (%)
T2 construct: degradation activity of the compounds disclosed in the present disclosure on AR protein in VCaP cells; host or cells: VCaP
T2 sequence (P10275 1-920): T1 sequence (P10275 1-920 T878A) with A878T
In short: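 Western blot readout: AR band grayscale normalised to GAPDH, used to derive degradation rate. Lysates came from VCaP cells exposed to compound for 8 h, with solvent controls run in parallel.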

[5] = read-out: IC50 for inhibiting the proliferation of LNCaP cells, LNCaP FGC cells, 96 hours, WST-8 absorbance at 450 nm
[6] = VCaP cells, 168 hours, WST-8 absorbance at 450 nm
[7] = LNCaP cells, compound 10 nM, 8 hours, Western blot grayscale, GAPDH internal reference
[8] = LNCaP cells, compound 100 nM, 8 hours, Western blot grayscale, GAPDH internal reference
[9] = LNCaP FGC cells, 96 hours, WST-8 absorbance at 450 nm, read-out: IC50 for inhibiting the proliferation of LNCaP cells

SMILES | IC50 ([1]; VCaP, 168 h) [nM] | inhibition at 0.01 µM ([2]; LNCaP, 8 h) [%] | inhibition at 0.1 µM ([2]; LNCaP, 8 h) [%] | IC50 [3, 5] [nM] | inhibition at 0.01 µM [4] [%] | inhibition at 0.1 µM [4] [%] | IC50 [1, 6] [nM] | inhibition at 0.01 µM [2, 7] [%] | inhibition at 0.1 µM [2, 8] [%] | IC50 [3, 9] [nM]
N#Cc1ccc(O[C@H]2CC[C@H](NC(=O)c3ccc(N4CC(N5CCC6(CC5)COc5c(ccc7c5C(=O)N(C5CCC(=O)NC5=O)C7)C6)C4)nn3)CC2)cc1Cl (stereo partly drawn) [Compound 191] | > 90000 | -2 | 4 | 15200 | 31 | 68 |  |  |  | 
CC1(CN2CCC3(CCc4cc5c(cc4O3)C(=O)N(C3CCC(=O)NC3=O)C5=O)CC2)CCN(c2ccc(C(=O)N[C@H]3CC[C@H](Oc4ccc(C#N)c(Cl)c4)CC3)nn2)CC1 (stereo partly drawn) [Compound 17] |  |  |  |  | 39 | 80 | 580 | 35 | 65 | 800
COc1cc(O[C@H]2C(C)(C)[C@H](NC(=O)c3ccc(N4CCC(F)(CN5CCC6(CC5)COc5cc7c(cc56)C(=O)N(C5CCC(=O)NC5=O)C7=O)CC4)cc3)C2(C)C)ccc1C#N (stereo partly drawn) [Compound 273] |  |  |  |  | -20 | 7 | 970 | 2 | 26 | 96400
N#Cc1ccc(O[C@H]2CC[C@H](NC(=O)c3ccc(N4CC5(CC(N6CCC7(CCc8cc9c(cc8O7)C(=O)N(C7CCC(=O)NC7=O)C9=O)CC6)C5)C4)nn3)CC2)cc1Cl (stereo partly drawn) [Compound 32] |  |  |  |  | 58 | 64 | 520 | 22 | 53 | 3600
COC1(CN2CCC3(CC2)COc2cc4c(cc2C3)C(=O)N(C2CCC(=O)NC2=O)C4=O)CCN(c2ccc(C(=O)NC3CCC(Oc4ccc(C#N)c(Cl)c4)CC3)nn2)CC1 (stereo not drawn) [Compound 69] |  |  |  |  | 50 | 78 | 960 | 26 | 64 | 390
N#Cc1ccc(O[C@H]2CC[C@H](NC(=O)c3ccc(N4CCC(CN5CC6(CCc7cc8c(cc7O6)CN(C6CCC(=O)NC6=O)C8=O)C5)CC4)nn3)CC2)cc1Cl (stereo partly drawn) [Compound 7] |  |  |  |  | 72 | 79 | 3540 | 86 | 79 | 1570
COc1cc(O[C@H]2C(C)(C)[C@H](NC(=O)c3ccc(N4CCC(C)(CN5CCC6(CC5)COc5cc7c(cc5C6)C(=O)N(C5CCC(=O)NC5=O)C7=O)CC4)cc3)C2(C)C)ccc1C#N (stereo partly drawn) [Compound 289] |  |  |  |  | -21 | 15 | 82 | 27 | 63 | 66000
CCC1(CN2CCC3(CC2)COc2c3ccc3c2C(=O)N(C2CCC(=O)NC2=O)C3=O)CCN(c2ccc(C(=O)N[C@H]3CC[C@H](Oc4ccc(C#N)c(OC)c4)CC3)nn2)CC1 (stereo partly drawn) [Compound 250] |  |  |  |  | 15 | 61 | 160 | -14 | 67 | > 90000
CC1(C)[C@H](NC(=O)c2ccc(N3CCC(F)(CN4CCC5(CC4)COc4c5ccc5c4CN(C4CCC(=O)NC4=O)C5=O)CC3)nn2)C(C)(C)[C@H]1Oc1ccc(C#N)c(C(F)(F)F)c1 (stereo partly drawn) [Compound 237] |  |  |  |  | -46 | 23 | 4.5 | 6 | 39 | 51
N#Cc1ccc(O[C@H]2CC[C@H](NC(=O)c3ccc(N4CCC(N5CCC6(CCc7cc8c(cc7O6)C(=O)N(C6CCC(=O)NC6=O)C8=O)CC5)CC4)nn3)CC2)cc1Cl (stereo partly drawn) [Compound 26] | 750 | 61 | 56 | 1200 | 48 | 56 |  |  |  | 
N#Cc1ccc(O[C@H]2CC[C@H](NC(=O)c3ccc(N4CCN(C(=O)CN5CCC6(CC5)COc5c6ccc6c5CN(C5CCC(=O)NC5=O)C6=O)CC4)nn3)CC2)cc1Cl (stereo partly drawn) [Compound 233] |  |  |  |  | 74 | 87 | 43 | 49 | 62 | 34300
N#Cc1ccc(O[C@H]2CC[C@H](NC(=O)c3ccc(C#CC4CCC(N5CCC6(CC5)COc5c6ccc6c5CN(C5CCC(=O)NC5=O)C6=O)CC4)nc3)CC2)cc1Cl (stereo partly drawn) [Compound 235] |  |  |  |  | 35 | 76 | 2 | 39 | 36 | 840
N#Cc1ccc(O[C@H]2CC[C@H](NC(=O)c3ccc(N4CC5(CC(N6CCC7(CC6)COc6cc8c(cc67)C(=O)N(C6CCC(=O)NC6=O)C8=O)C5)C4)nn3)CC2)cc1Cl (stereo partly drawn) [Compound 50] |  |  |  |  | 77 | 88 | 28 | 66 | 86 | 1200
N#Cc1ccc(O[C@H]2CC[C@H](NC(=O)c3ccc(N4CC5(CCC(N6CCC7(CCc8cc9c(cc8O7)C(=O)N(C7CCC(=O)NC7=O)C9=O)CC6)CC5)C4)nn3)CC2)cc1Cl (stereo partly drawn) [Compound 33] |  |  |  |  | 49 | 52 | 1700 | 27 | 61 | 2210
N#Cc1ccc(O[C@H]2CC[C@H](NC(=O)c3ccc(N4CCC(CN5CCC6(CC5)COc5cc7c(cc5C6)C(=O)N(C5CCC(=O)NC5=O)C7=O)CC4)nn3)CC2)cc1Cl (stereo partly drawn) [Compound 72] |  |  |  |  | 75 | 85 | 100 | 81 | 92 | 50
